{"source": "patent US11572402B2", "about": "“Method for promoting diversification of antibody variable region” (Chiome Bioscience Inc., priority 2017, dated 2023)", "key": {"hVEGF-A-#33 cell line": {"system": "hVEGF-A-#33 cell line", "assay": "Affinity Maturation and FCM, cells in Affinity Maturation Gate", "type": "cell-based, chicken", "conditions": "A66 10 μM, PI3Kα Inhibitor 2 500 nM, Day 7, versus conditions without drug", "description": "(§1) Frozen stocks of the hVEGF-A #33 cell line and the hVEGF-A #44 cell line (3.0×10^6 cells) were each awaken with a CS(−) medium, using a 25 cm^2 Flask (Corning, 430639), and were then cultured in a CO2 incubator (SANYO CO2 Incubator MCO-20AIC, 39.5° C., 5% CO2). On the following day, the cells were seeded on a 6-well dish (Nunc, 140675) to a cell density of 1.0×10^4 cells/mL (wherein the cell concentration and the survival rate were measured using CASY cell counter (Nepa Gene)). The cells were cultured in a CS(+) medium, in the presence or absence of a PI3Kα inhibitor (A66: 10 μM, PI3Kα Inhibitor 2: 500 nM). Moreover, after the cells had been cultured for 2 days, individual samples were subcultured under the same conditions to result in a cell density of 1.0×10^4 cells/mL. […] A plot, in which the vertical axis indicated AF647 (AF647-labeled hVEGF-A) and the longitudinal axis indicated PE (Goat Anti-Human IgG-PE), was developed, and the percentage of PE+(hIgG+)/[…] cells was then calculated. […] The percentage of clones with improved antigen-binding ability was calculated by counting the number of cells existing in this Affinity Maturation Gate and then dividing the obtained value by the total number of the analyzed cells. […]"}, "hVEGF-A-#44 cell line": {"system": "hVEGF-A-#44 cell line", "assay": "Affinity Maturation and FCM, cells in Affinity Maturation Gate", "type": "cell-based, chicken", "conditions": "A66 10 μM, PI3Kα Inhibitor 2 500 nM, Day 7, versus conditions without drug", "description": "as §1"}}, "data": [{"smiles": "Cc1nc(NC(=O)N2CCC[C@H]2C(N)=O)sc1-c1csc(C(C)(C)C)n1", "note": "[A66]", "values": [{"measurement": "percentage of the cells with improved antigen-binding ability (Affinity Maturation Gate, 5 or more times increased in MFI)", "setting": "hVEGF-A-#33 cell line", "result": "increased"}, {"measurement": "percentage of the cells with improved antigen-binding ability (Affinity Maturation Gate, 5 or more times increased in MFI)", "setting": "hVEGF-A-#44 cell line", "result": "increased"}]}]}
